Data on 15 substances can be found in patent publication US20040171795A1, “Novel peptides” (priority 2000, published 2004).

In data set [1] the test system is cell (Vero, T24 or A549 of Example 9; not given). In words: Nucleic acid-introducing ability, luciferase-expressing plasmid (procedure of Example 9). The note with it: for Nucleic acid-introducing ability: class of fluorescent count per 1 mg of protein per 1 second, highest of peptide 1.25, 2.5, 5 μM, plasmid 1 μg/mL; for ability of introducing the nucleic acid into a cell: procedure of Example 9, luciferase-expressing plasmid. It is filed as cell-based. From the text: A cell line established from monkey kidney (Vero cell) and a human bladder cancer cell (T24 cell) purchased from American Type Culture Collection (ATCC) and human lung cancer cell (A549 cell) purchased from Dainippon Pharmaceutical were inoculated on a 24 well culture plate (manufactured by NALGEN NUNC) at 1×10^5 cells/well. Vero cell and A549 cell were cultivated in DMEM (manufactured by Life Technologies Oriental) supplemented with 10% fetal bovine serum (hereinafter referred to as FBS, manufactured by NICHIREI), and T24 cell was cultivated in McCoy's 5a (manufactured by Life Technologies Oriental) supplemented with 10% FBS in 5% CO2 atmosphere at 37° C. for 24 hours. After removing the medium, opti-MEM (manufactured by Life Technologies Oriental) prepared to have the concentration of the luciferase-expressing plasmid prepared in Example 7 of 1 μg/mL and the concentration of the peptide prepared in Example 1 of 1.25, 2.5, or 5 μM was added, and the cells were cultivated for 5 hours. Next, in the case of Vero cell and A549 cell, the culture medium was replaced with DMEM supplemented with 10% FBS, and in the case of T24 cell, the medium was replaced with McCoy's 5a supplemented with 10% FBS, and cultivation was continued in 5% CO2 atmosphere and at 37° C. for another 24 hours. The luciferase activity expressed in the cell was then measured by the method instructed in luciferase assay system (manufactured by Promega). To be more specific, the cells were washed with phosphate-buffered saline (hereinafter referred to as PBS, manufactured by SIGMA), and the cells were lyzed with Passive Lysis Buffer attached to the kit. 20 μL of this cell lysate and 100 μL of the Luciferase Assay Reagent II attached to the kit was added to a fluorescence-measuring plate (Microlite™ 1 plate, manufactured by Dynatech), and after mixing, fluorescence was measured for 1 second by using a multilabel counter (ARVO™ SY1420 MULTILABEL COUNTER, manufactured by Wallac Beltold.
Concentration of the protein in the cell lysate was measured by mixing 8 μL of the cell lysate and 200 μL of the protein assay solution (manufactured by Biorad) with 792 μL of ultrapure water in a disposable cuvette (UV fluorescent cuvette A204X, manufactured by Funakoshi), allowing the mixture to stand for 5 minutes at room temperature, and measuring the absorption at 595 nm with a spectrophotometer (DU640, manufactured by Beckman). Bovine serum albumin (BSA) was used for the standard protein. By using the thus obtained results, count per 1 second per 1 mg of protein of the cell lysate was calculated to thereby use the count as the luciferase activity, and the highest count in the three conditions of different peptide concentration was designated the gene-introducing ability of the peptide.
It is to be noted that the nucleic acid-introducing ability was classified as described below on the bases of the fluorescent count per 1 mg of protein per 1 second (cps/mg protein).

A short description of data set [2]: Affinity for phosphatidyl serine (EIA, inhibition of human Factor VIII binding). The note with it: for IC50: class of IC50 for inhibiting human Factor VIII binding, 5% BSA. The method, then: The specific affinity of the peptide for phosphatidyl serine was evaluated by measuring activity of the peptide for inhibiting the binding of the human Factor VIII to phosphatidyl serine by using human Factor VIII which is known to bind to phosphatidyl serine but not to phosphatidyl choline in the presence of serum albumin. To be more specific, 100 μL of ethanol solution containing 10 μg/mL of phospholipids at a phosphatidyl serine (manufactured by SIGMA): phosphatidyl choline (manufactured by SIGMA) ratio of 3:7 was added to the wells of a 96 well plate (Immulon I, manufactured by Dynatech), and exsiccated by using a centrifugal evaporator (EC-95C, manufactured by Sakuma Seisakusho) at 40° C. for 40 minutes. 200 μL each of TBS (10 mM Tris-HCl (pH 7.4) containing 1% bovine serum albumin (BSA Fraction V, hereinafter referred to as BSA, manufactured by Seikagaku Corporation) and 0.9% (W/V) NaCl solution were added to each well, and the wells were blocked by allowing the plate to stand at 37° C. for 2.5 hours. After washing the plate with water, 100 μL of TBS solution supplemented with 5% BSA mixed with human Factor VIII (manufactured by American Diagnostica) at a final concentration 1 μg/mL and the peptide of predetermined dose prepared in Example 1 was added to each well, and the reaction was allowed to take place at 4° C. for 24 hours.
After the completion of the reaction, the human Factor VIII that became bound to the phosphatidyl serine was measured by enzyme immunoassay (EIA) in accordance with the general procedure described in a book (“Enzyme Immunoassay (3rd ed.)”, Eiji Ishikawa et al., Igaku-Shoin, 1987). To be more specific, the measurement was conducted by using anti-human Factor VIII mouse monoclonal antibody (ESH8, manufactured by American Diagnostica) for the primary antibody, horseradish peroxidase-labeled anti-mouse IgG antibody (P0260, manufactured by Daco) for the secondary antibody, and tetramethylbenzidine for the chromogenic substrate, and measuring the absorption at a wavelength of 450 nm by using a reference wavelength of 630 nm on a spectrophotometer (NJ-2100, manufactured by Intermed).
Intensity of the affinity of the peptide for the phosphatidyl serine was evaluated by using the value obtained by subtracting the absorption of the well having no human Factor VIII added thereto from the absorption of the well having only the human Factor VIII added thereto as the control value (100%), and designating the peptide concentration at which the value 0.5 was obtained when the value obtained by subtracting the absorption of the well having only the peptide added thereto from the absorption of the well having a mixture of the human Factor VIII and the peptide added thereto were divided by the control value as the IC50 value, and evaluating the intensity to be ++ when the IC50 value was up to 1 μM, and +when the intensity was more than 1 μM but not more than 10 μM. It is to be noted that the specific affinity was evaluated to be none when the intensity was 10 μM or more.

Data set [3] can be described thus: Measurement of turbidity in BSA. To be noted: BSA 1%, peptide 50 μM, absorbance at 600 nm. Format: physicochemical. As for the experimental part:
The solutions were evaluated for their absorbance at a wavelength of 600 nm by using a spectrophotometer (DU640, manufactured by Beckman).

Turning to “SEQ ID NO: 22: peptide of SEQ ID NO:1 with three locations substituted in the 18 amino acid sequence (TRRLRIHPRRWVHRIALRLRRLRIHPRRWVHRIALRS; synthetic peptide using an automatic peptide synthesizer)”, in data set [1], the Nucleic acid-introducing ability is given as 3+ (1,000,000 to less than 10,000,000).

“SEQ ID NO: 23: deletion mutant of the peptide of SEQ ID NO:1 (TIHPRSWVHQIALRLRYLRIHPRSWVHQIAS; synthetic peptide using an automatic peptide synthesizer)”: in data set [1], the Nucleic acid-introducing ability was 2+ (100,000 to less than 1,000,000) and the “ability of introducing the nucleic acid into a cell” value was “had the ability of introducing the nucleic acid into a cell”. In data set [2], this substance displayed an IC50 below 1000 nM. Also, the “OD 600” value in data set [3] is recorded as 0.01>. “SEQ ID NO: 19: peptide of SEQ ID NO:1 with three locations substituted in the 18 amino acid sequence; preferred peptide (TRYLRLHPRSWLHQLALRLRYLRLHPRSWLHQLALRS; synthetic peptide using an automatic peptide synthesizer)”: in data set [1], the Nucleic acid-introducing ability was 4+ (10,000,000 or more). Moreover, the concentration for half-maximal inhibition (IC50) in data set [2] was below 1000 nM. Also, the “OD 600” value in data set [3] is 0.01>. Take “SEQ ID NO: 14: peptide of SEQ ID NO:1 with one or two locations substituted in the 18 amino acid sequence (TRYLRIHPRSWSHQIALRLRYLRIHPRSWSHQIALRS; synthetic peptide using an automatic peptide synthesizer)”: the Nucleic acid-introducing ability in data set [1] is listed as 3+ (1,000,000 to less than 10,000,000). With “SEQ ID NO: 7: peptide of SEQ ID NO:1 with one or two locations substituted in the 18 amino acid sequence (TRYLRIHPRSWVHQIALKLKYLRIHPRSWVHQIALRS; synthetic peptide using an automatic peptide synthesizer)”, the Nucleic acid-introducing ability in data set [1] is 2+ (100,000 to less than 1,000,000). Besides, in data set [2], the 50% inhibitory concentration (IC50) lay within 1000 to 10000 nM. Also, the “OD 600” value in data set [3] is on record as 0.01>. “SEQ ID NO: 2: peptide of SEQ ID NO:1 with one or two locations substituted in the 18 amino acid sequence (TRYLRIHPRSWVRQIALRLRYLRIHPRSWVRQIALRS; synthetic peptide using an automatic peptide synthesizer)”: the Nucleic acid-introducing ability in data set [1] is on record as 3+ (1,000,000 to less than 10,000,000). Moreover, the IC50 in data set [2] is below 1000 nM. Further, the “OD 600” value in data set [3] is listed as 0.01>. Take “SEQ ID NO: 13: peptide of SEQ ID NO:1 with one or two locations substituted in the 18 amino acid sequence (TRYLRIHPRSLVHQIALRLRYLRIHPRSLVHQIALRS; synthetic peptide using an automatic peptide synthesizer)”: in data set [1], the Nucleic acid-introducing ability is given as 3+ (1,000,000 to less than 10,000,000). Same read-out and setting: the value for “SEQ ID NO: 18: peptide of SEQ ID NO:1 with one or two locations substituted in the 18 amino acid sequence (TRYLRIHPRSWLHQIALRTRYLRIHPRSWLHQIALRS; synthetic peptide using an automatic peptide synthesizer)” was 4+ (10,000,000 or more). In the case of “SEQ ID NO:26: comparative peptide, SEQ ID NO:1 substituted so that it lacks the four sided 18 amino acid sequence (TRYLRIHPRSWVLQIALRLRYLRIHPRSWVLQIALRS; synthetic peptide using an automatic peptide synthesizer) [reference compound]”, the fluorescent count entry in data set [1] (procedure of Example 9) is given as “less than 10,000 cps/mg protein”. Further, the “ability of introducing the nucleic acid into a cell” value in data set [1] was “no nucleic acid-introducing ability was found”. With Polylysine [reference compound], in data set [2] (procedure of Example 20), the “affinity for phosphatidyl serine” value is “no affinity for phosphatidyl serine”. In addition, the “OD 600” value in data set [3] is at least 1. For the substance “SEQ ID NO: 24: deletion mutant of the peptide of SEQ ID NO:4 (TLRYLRIHPRSWLHQIALRS; synthetic peptide using an automatic peptide synthesizer)”, in data set [1], the Nucleic acid-introducing ability is given as 1+ (10,000 to less than 100,000) and the “ability of introducing the nucleic acid into a cell” value is given as “had the ability of introducing the nucleic acid into a cell”. As to “SEQ ID NO: 21: peptide of SEQ ID NO:1 with three locations substituted in the 18 amino acid sequence (TKYLKIHPKSWVHQIALRLKYLKIHPKSWVHQIALRS; synthetic peptide using an automatic peptide synthesizer)”, in data set [1], the Nucleic acid-introducing ability is 2+ (100,000 to less than 1,000,000). Still for that read-out and setting: the value for “SEQ ID NO: 9: peptide of SEQ ID NO:1 with one or two locations substituted in the 18 amino acid sequence (TRYLRIHPRSWVHQIALRTRYLRIHPRSWVHQIALRS; synthetic peptide using an automatic peptide synthesizer)” was 3+ (1,000,000 to less than 10,000,000); that for “SEQ ID NO: 20: peptide of SEQ ID NO:1 with three locations substituted in the 18 amino acid sequence (TRYLRLHPRSWVHQLALRTRYLRLHPRSWVHQLALRS; synthetic peptide using an automatic peptide synthesizer)” was 4+ (10,000,000 or more). On to “SEQ ID NO: 12: peptide of SEQ ID NO:1 with one or two locations substituted in the 18 amino acid sequence (TRYLRIHPRSWVHQIALSLRYLRIHPRSWVHQIALSS; synthetic peptide using an automatic peptide synthesizer)”, for which the Nucleic acid-introducing ability in data set [1] is 2+ (100,000 to less than 1,000,000).
